Tests used:
bovine F1Fo-ATPase [1] = biological target: T1, bovine F1Fo-ATPase (Bos taurus, UniProt P13621); assay: ATP hydrolysis by F1Fo-ATPase in bovine submitochondrial particles (SMPs); assay type: biochemical
T1 construct: bovine F1Fo-ATPase present in submitochondrial particles (SMPs); from tissue

bovine F1Fo-ATPase [2] = biological target: T1, bovine F1Fo-ATPase; assay: ATP synthesis by F1Fo-ATPase in bovine submitochondrial particles (SMPs); assay type: biochemical
Ramos B cells [3] = assay: Early superoxide (O2-, ROS) response in Ramos B cells; assay type: cell-based; settings: Homo sapiens, O2- response 1 h following incubation with drug
Experimental: (§1) Since an early mitochondrial superoxide (O2^−) mediates apoptosis induced by Bz-423, the O2^− response of cells 1 h following incubation with drug was examined, as well as cell death at 24 h, as previously described (see, e.g., Blatt, N. B., et al., 2002 J Clin Invest 110, 1123-1132; incorporated herein by reference in its entirety).

Jurkat T cells [4] = assay: Cell death in Jurkat T cells; assay type: cell-based; settings: Homo sapiens, cell death at 24 h
Experimental: as §1

Jurkat T cells [5] = assay: Early superoxide (O2-, ROS) response in Jurkat T cells; assay type: cell-based; settings: Homo sapiens, O2- response 1 h following incubation with drug
Experimental: as §1

Ramos B cells [6] = assay: Cell death in Ramos B cells; assay type: cell-based; settings: Homo sapiens, cell death at 24 h
Experimental: as §1

[7] = bovine SMPs, drug 0-300 μM, read-out: ATPase activity EC50, Hydrolysis
[8] = read-out: ATPase activity EC50, Synthesis

SMILES | EC50 (bovine F1Fo-ATPase [1]; [7]) [µM] | EC50 (bovine F1Fo-ATPase [2]; [8]) [µM] | EC50 (bovine F1Fo-ATPase [1]) [µM] | EC50 (Ramos B cells [3]) [µM] | EC50 (bovine F1Fo-ATPase [2]; ATPase activity EC50, Synthesis) [µM] | EC50 (Jurkat T cells [4]) [µM] | EC50 (Jurkat T cells [5]) [µM] | EC50 (Ramos B cells [6]) [µM]
CN1C(=O)C(Cc2ccc3ccccc3c2)N=C(c2ccc(O)cc2)c2cc(Cl)ccc21 (stereo not drawn) [Bz-423] | 8.9 | 5.5 |  |  |  |  |  | 
CN1C(=O)CN=C(c2ccc(Cl)cc2)c2cc(Cl)ccc21 [Compound 4-Cl-Dz, 4-chlorodiazepam] | > 300 | 210 |  |  |  |  |  | 
O=C1CN=C(c2ccccc2Cl)c2cc([N+](=O)[O-])ccc2N1 [Cz, clonazepam] | 240 | 120 |  |  |  |  |  | 
CN1C(=O)CN=C(c2ccccc2)c2cc(Cl)ccc21 [Dz, diazepam] |  |  | > 300 | 170 | 210 | 170 | 200 | 250

Source: US20090203734A1, “F1F0-ATPASE INHIBITORS AND RELATED METHODS” (The Regents of the University of Michigan, priority 2008, published 2009)
